In patent US10053463B2 (Janssen Pharmaceutica NV, priority 2013, dated 2018):

Tests used:
[1] = target: T1, P2X7 (Homo sapiens (Human), UniProt Q99572); experiment: P2X7 antagonism in human peripheral blood mononuclear cells (PBMCs), IL-1β release; assay type: cell-based; conditions: P2X7; Table 3 (additional runs); 10 μM compound; read-out: PBMC 10 μM (% control)
Method in brief: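 Ficoll-isolated human PBMCs primed with LPS (30 ng/ml) for 1 h, treated with compound for 30 min, then stimulated with 0.5 mM Bz-ATP for 1.5 h. Supernatant IL-1β measured by ELISA as % of LPS+Bz-ATP minus LPS-only release; IC50 from concentration–response of triplicate means.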

[2] = target: T1, P2X7; experiment: Radioligand binding, human P2X7-1321N1 cell membranes, tracer tritiated A-804598; conditions: Table 3 (additional runs)
Experimental: P2X7 Antagonism in Recombinant Human P2X7 Cells or Recombinant Rat P2X7 Cells: (a) Ca^2+ Flux and (b) Radioligand Binding
(b) Radioligand Binding: human or rat P2X7-1321N1 cells were collected and frozen @−80° C. On the day of the experiment, cell membrane preparations were made according to standard published methods. The total assay volume was 100 μl:10 μl compound (10×)+(b) 40 μl tracer (2.5×)+50 μl membrane (2×). The tracer used for the assay was tritiated A-804598. The compound can be prepared as described in the literature. (Donnelly-Roberts, D. Neuropharmacology 2008, 56 (1), 223-229.) Compounds, tracer and membranes were incubated for 1 hour @ 4° C. The assay was terminated by filtration (GF/B filters pre-soaked with 0.3% PEI) and washed with washing buffer (Tris-HCl 50 mM). The IC50 generated in the binding assay was corrected for tracer concentration and affinity of the tracer to derive at the affinity (K) of the test compounds. […] Data are analyzed and graphed on Graphpad Prism 5. For analysis, each concentration point is averaged from triplicate values and the averaged values are plotted on Graphpad Prism.

T1 sequence (Q99572 whole entry): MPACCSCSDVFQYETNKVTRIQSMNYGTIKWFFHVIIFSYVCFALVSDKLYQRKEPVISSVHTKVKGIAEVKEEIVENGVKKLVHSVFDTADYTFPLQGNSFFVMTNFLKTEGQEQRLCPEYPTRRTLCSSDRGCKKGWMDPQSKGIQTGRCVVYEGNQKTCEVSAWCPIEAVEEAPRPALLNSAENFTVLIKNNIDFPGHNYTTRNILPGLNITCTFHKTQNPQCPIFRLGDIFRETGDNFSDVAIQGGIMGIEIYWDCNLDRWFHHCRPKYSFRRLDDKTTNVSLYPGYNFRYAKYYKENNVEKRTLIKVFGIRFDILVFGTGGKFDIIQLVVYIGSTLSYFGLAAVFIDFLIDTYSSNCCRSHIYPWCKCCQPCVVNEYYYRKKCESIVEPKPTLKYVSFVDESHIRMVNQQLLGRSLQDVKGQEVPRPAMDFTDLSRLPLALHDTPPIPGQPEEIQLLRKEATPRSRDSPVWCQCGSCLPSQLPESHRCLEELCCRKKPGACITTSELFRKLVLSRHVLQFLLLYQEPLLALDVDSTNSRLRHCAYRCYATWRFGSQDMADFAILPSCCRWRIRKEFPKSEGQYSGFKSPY

Structure (SMILES) | remaining activity at 10 µM [1] [%] | Ki [2] [µM]
C[C@H]1Cn2c(-c3cc(C(F)(F)F)ccn3)nnc2-c2nnc(-c3cccc(C(F)(F)F)c3Cl)n21 [Example 119, (S)-3-[2-chloro-3-(trifluoromethyl)phenyl]-5-methyl-8-(4-(trifluoromethyl)pyridin-2-yl)-5,6-dihydrobis[1,2,4]triazolo[4,3-a:3′,4′-c]pyrazine] | 15 | 0.0141
COc1ccnc(-c2nnc3n2C[C@H](C)n2c(-c4ccc(Cl)cc4Cl)nnc2-3)c1 [Example 130, (S)-3-(2,4-dichlorophenyl)-8-(4-methoxypyridin-2-yl)-5-methyl-5,6-dihydrobis([1,2,4]triazolo)[4,3-a:3′,4′-c]pyrazine] | -0.7 | 0.0063
C[C@H]1Cn2c(-c3cnccn3)nnc2-c2nnc(-c3cccc(C(F)(F)F)c3Cl)n21 [Example 99, (5S)-3-[2-Chloro-3-(trifluoromethyl)phenyl]-5-methyl-8-pyrazin-2-yl-5,6-dihydrobis[1,2,4]triazolo[4,3-a:3′,4′-c]pyrazine] | 34.3 | 0.0079
C[C@H]1Cn2c(-c3ccc(F)cc3)nnc2-c2nnc(-c3cccc(C(F)(F)F)c3Cl)n21 [Example 101, (5S)-3-[2-Chloro-3-(trifluoromethyl)phenyl]-8-(4-fluorophenyl)-5-methyl-5,6-dihydrobis[1,2,4]triazolo[4,3-a:3′,4′-c]pyrazine] | 1.2 | 0.0398
C[C@H]1Cn2c(-c3cc[nH]n3)nnc2-c2nnc(-c3cccc(C(F)(F)F)c3Cl)n21 [Example 103, (5S)-3-[2-Chloro-3-(trifluoromethyl)phenyl]-5-methyl-8-(1H-pyrazol-3-yl)-5,6-dihydrobis[1,2,4]triazolo[4,3-a:3′,4′-c]pyrazine] | 3.3 | 0.0224
C[C@H]1Cn2c(-c3ccncn3)nnc2-c2nnc(-c3cccc(C(F)(F)F)c3Cl)n21 [Example 111, (5S)-3-[2-Chloro-3-(trifluoromethyl)phenyl]-5-methyl-8-pyrimidin-4-yl-5,6-dihydrobis[1,2,4]triazolo[4,3-a:3′,4′-c]pyrazine] | 6.1 | 0.01
C[C@H]1Cn2c(-c3cnco3)nnc2-c2nnc(-c3cccc(C(F)(F)F)c3Cl)n21 [Example 115, (5S)-3-[2-Chloro-3-(trifluoromethyl)phenyl]-5-methyl-8-(1,3-oxazol-5-yl)-5,6-dihydrobis[1,2,4]triazolo[4,3-a:3′,4′-c]pyrazine] | 2.1 | 0.0437
Cc1c(-c2nnc3n2[C@@H](C)Cn2c(-c4ccc(F)cn4)nnc2-3)cccc1C(F)(F)F [Example 128, (S)-8-(5-fluoropyridin-2-yl)-5-methyl-3-(2-methyl-3-(trifluoromethyl)phenyl)-5,6-dihydrobis([1,2,4]triazolo)[4,3-a:3′,4′-c]pyrazine] | 3.8 | 0.0063
COc1ccnc(-c2nnc3n2C[C@H](C)n2c(-c4cccc(Cl)c4Cl)nnc2-3)c1 [Example 129, (S)-3-(2,3-dichlorophenyl)-8-(4-methoxypyridin-2-yl)-5-methyl-5,6-dihydrobis([1,2,4]triazolo)[4,3-a:3′,4′-c]pyrazine] | -0.2 | 0.01
C[C@H]1Cn2c(-c3cn[nH]c3)nnc2-c2nnc(-c3cccc(C(F)(F)F)c3Cl)n21 [Example 112, (5S)-3-[2-Chloro-3-(trifluoromethyl)phenyl]-5-methyl-8-(1H-pyrazol-4-yl)-5,6-dihydrobis[1,2,4]triazolo[4,3-a:3′,4′-c]pyrazine] | 6.7 | 0.126
Cc1ncsc1-c1nnc2n1C[C@H](C)n1c(-c3cccc(C(F)(F)F)c3Cl)nnc1-2 [Example 109, (5S)-3-[2-Chloro-3-(trifluoromethyl)phenyl]-5-methyl-8-(4-methyl-1,3-thiazol-5-yl)-5,6-dihydrobis[1,2,4]triazolo[4,3-a:3′,4′-c]pyrazine] | -1.2 | 0.0631
COc1ccnc(-c2nnc3n2C[C@H](C)n2c(-c4cccc(C(F)(F)F)c4C)nnc2-3)c1 [Example 131, (S)-8-(4-methoxypyridin-2-yl)-5-methyl-3-(2-methyl-3-(trifluoromethyl)phenyl)-5,6-dihydrobis([1,2,4]triazolo)[4,3-a:3′,4′-c]pyrazine] | 0.7 | 0.005
C[C@H]1Cn2c(-c3ccccn3)nnc2-c2nnc(-c3cccc(C(F)(F)F)c3Cl)n21 [Example 124, (S)-3-(2-chloro-3-(trifluoromethyl)phenyl)-5-methyl-8-(pyridin-2-yl)-5,6-dihydrobis([1,2,4]triazolo)[4,3-a:3′,4′-c]pyrazine] | -4.2 | 0.0036
Cc1cnc(-c2nnc3n2C[C@H](C)n2c(-c4cccc(C(F)(F)F)c4Cl)nnc2-3)cn1 [Example 110, (5S)-3-[2-Chloro-3-(trifluoromethyl)phenyl]-5-methyl-8-(5-methylpyrazin-2-yl)-5,6-dihydrobis[1,2,4]triazolo[4,3-a:3′,4′-c]pyrazine] | -1.4 | 0.0631
COc1ccnc(-c2nnc3n2C[C@H](C)n2c(-c4cccc(C(F)(F)F)c4Cl)nnc2-3)c1 [Example 113, (5S)-3-[2-Chloro-3-(trifluoromethyl)phenyl]-8-(4-methoxypyridin-2-yl)-5-methyl-5,6-dihydrobis[1,2,4]triazolo[4,3-a:3′,4′-c]pyrazine] | 5.8 | 0.0087
C[C@H]1Cn2c(-c3nccs3)nnc2-c2nnc(-c3cccc(C(F)(F)F)c3Cl)n21 [Example 106, (5S)-3-[2-Chloro-3-(trifluoromethyl)phenyl]-5-methyl-8-(1,3-thiazol-2-yl)-5,6-dihydrobis[1,2,4]triazolo[4,3-a:3′,4′-c]pyrazine] | 1.9 | 0.0126
C[C@H]1Cn2c(-c3nccc(C(F)(F)F)n3)nnc2-c2nnc(-c3cccc(C(F)(F)F)c3Cl)n21 [Example 118, (S)-3-[2-chloro-3-(trifluoromethyl)phenyl]-5-methyl-8-(4-(trifluoromethyl)pyrimidin-2-yl)-5,6-dihydrobis[1,2,4]triazolo[4,3-a:3′,4′-c]pyrazine] | 9.9 | 0.0631
Cc1ccc(-c2nnc3n2C[C@H](C)n2c(-c4cccc(C(F)(F)F)c4Cl)nnc2-3)s1 [Example 121, (S)-3-[2-chloro-3-(trifluoromethyl)phenyl]-5-methyl-8-(5-methylthiophen-2-yl)-5,6-dihydrobis[1,2,4]triazolo[4,3-a:3′,4′-c]pyrazine] | 9.3 | 0.0158
Cc1ccnc(-c2nnc3n2C[C@H](C)n2c(-c4cccc(C(F)(F)F)c4Cl)nnc2-3)c1 [Example 125, (S)-3-(2-chloro-3-(trifluoromethyl)phenyl)-5-methyl-8-(4-methylpyridin-2-yl)-5,6-dihydrobis([1,2,4]triazolo)[4,3-a:3′,4′-c]pyrazine] | 28.5 | 0.0105
C[C@H]1Cn2c(-c3ncccn3)nnc2-c2nnc(-c3cccc(C(F)(F)F)c3Cl)n21 [Example 105, (5S)-3-[2-Chloro-3-(trifluoromethyl)phenyl]-5-methyl-8-pyrimidin-2-yl-5,6-dihydrobis[1,2,4]triazolo[4,3-a:3′,4′-c]pyrazine] | 0.2 | 0.004
C[C@H]1Cn2c(-c3cnccn3)nnc2-c2nnc(-c3cccc(Cl)c3Cl)n21 [Example 100, (5S)-3-(2,3-Dichlorophenyl)-5-methyl-8-pyrazin-2-yl-5,6-dihydrobis[1,2,4]triazolo[4,3-a:3′,4′-c]pyrazine] | 17.2 | 0.02
C[C@H]1Cn2c(-c3ccc(F)cn3)nnc2-c2nnc(-c3cccc(Cl)c3Cl)n21 [Example 126, (S)-3-(2,3-dichlorophenyl)-8-(5-fluoropyridin-2-yl)-5-methyl-5,6-dihydrobis([1,2,4]triazolo)[4,3-a:3′,4′-c]pyrazine] | -0.5 | 0.0126
C[C@H]1Cn2c(-c3ccc(F)cn3)nnc2-c2nnc(-c3ccc(Cl)cc3Cl)n21 [Example 127, (S)-3-(2,4-dichlorophenyl)-8-(5-fluoropyridin-2-yl)-5-methyl-5,6-dihydrobis([1,2,4]triazolo)[4,3-a:3′,4′-c]pyrazine] | 0.1 | 0.01
